Source: patent US11220502B2, “Sulfone compounds and derivatives for the treatment and prophylaxis of virus infection” (Hoffmann-La Roche Inc., priority 2018, dated 2022)
pEC50: −log10 of the molar value. Where two headings read alike, the source gives them in different places.

Molecular target: T1, human TLR7 (Homo sapiens, UniProt Q9NYK1)
T1 sequence (Q9NYK1 27-1049): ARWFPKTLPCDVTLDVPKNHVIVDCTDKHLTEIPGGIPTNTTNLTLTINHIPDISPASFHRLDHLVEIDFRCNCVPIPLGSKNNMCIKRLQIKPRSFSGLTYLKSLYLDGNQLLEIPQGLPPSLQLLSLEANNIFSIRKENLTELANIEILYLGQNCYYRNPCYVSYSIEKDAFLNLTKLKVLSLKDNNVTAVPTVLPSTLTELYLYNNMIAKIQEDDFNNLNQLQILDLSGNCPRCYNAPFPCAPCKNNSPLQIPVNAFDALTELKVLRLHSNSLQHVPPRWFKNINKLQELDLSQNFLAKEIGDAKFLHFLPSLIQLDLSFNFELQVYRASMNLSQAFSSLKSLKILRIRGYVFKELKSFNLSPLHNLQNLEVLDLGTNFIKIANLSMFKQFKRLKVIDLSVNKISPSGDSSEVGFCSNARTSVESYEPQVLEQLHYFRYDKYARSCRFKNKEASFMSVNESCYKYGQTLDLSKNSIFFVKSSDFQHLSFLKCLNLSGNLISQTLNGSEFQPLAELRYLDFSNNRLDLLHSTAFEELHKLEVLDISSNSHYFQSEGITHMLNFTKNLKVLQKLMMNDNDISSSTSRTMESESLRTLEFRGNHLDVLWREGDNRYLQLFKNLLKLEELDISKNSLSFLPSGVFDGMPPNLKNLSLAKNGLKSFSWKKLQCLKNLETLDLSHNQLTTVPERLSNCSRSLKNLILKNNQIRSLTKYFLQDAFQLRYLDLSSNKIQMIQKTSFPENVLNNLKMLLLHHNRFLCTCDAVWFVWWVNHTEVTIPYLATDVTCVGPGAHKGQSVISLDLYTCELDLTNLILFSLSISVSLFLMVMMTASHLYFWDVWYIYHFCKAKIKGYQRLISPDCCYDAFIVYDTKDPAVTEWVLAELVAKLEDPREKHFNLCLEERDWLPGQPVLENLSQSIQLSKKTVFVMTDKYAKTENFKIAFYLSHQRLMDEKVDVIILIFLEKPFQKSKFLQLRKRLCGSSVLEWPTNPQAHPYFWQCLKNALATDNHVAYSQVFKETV
Experiment: HEK293-Blue-hTLR-7 cells assay (SEAP reporter, NF-κB activation)
Assay type: cell-based
Conditions: for pEC50: HEK293-Blue-hTLR-7 cells, 20 hrs incubation, SEAP reporter; for Ratio (EC50(prodrug)/EC50(active form)): calculated ratio of prodrug EC50 to EC50 of corresponding active form
From the text: HEK293-Blue-hTLR-7 Cells Assay
A stable HEK293-Blue-hTLR-7 cell line was purchased from InvivoGen (Cat. #: hkb-ht1r7, San Diego, Calif., USA). These cells were designed for studying the stimulation of human TLR7 by monitoring the activation of NF-κB. A SEAP (secreted embryonic alkaline phosphatase) reporter gene was placed under the control of the IFN-β minimal promoter fused to five NF-κB and AP-1-binding sites. The SEAP was induced by activating NF-κB and AP-1 via stimulating HEK-Blue hTLR7 cells with TLR7 ligands. Therefore the reporter expression was regulated by the NF-κB promoter upon stimulation of human TLR7 for 20 hrs. The cell culture supernatant SEAP reporter activity was determined using QUANTI-Blue™ kit (Cat. #: rep-qb1, Invivogen, San Diego, Calif., USA) at a wavelength of 640 nm, a detection medium that turns purple or blue in the presence of alkaline phosphatase.
HEK293-Blue-hTLR7 cells were incubated at a density of 250,000˜450,000 cells/mL in a volume of 180 μL in a 96-well plate in Dulbecco's Modified Eagle's medium (DMEM) containing 4.5 g/L glucose, 50 U/mL penicillin, […], […], 2 mM L-glutamine, 10% (V/V) heat-inactivated fetal bovine serum for 24 hrs. Then the HEK293-Blue-hTLR-7 cells were incubated with addition of 20 μL test compound in a serial dilution in the presence of final DMSO at 1% and perform incubation under 37° C. in a CO2 incubator for 20 hrs. Then 20 μL of the supernatant from each well was incubated with 180 μL Quanti-blue substrate solution at 37° C. for 2 hrs and the absorbance was read at 620˜655 nm using a spectrophotometer. The signalling pathway that TLR7 activation leads to downstream NF-κB activation has been widely accepted, and therefore similar reporter assay was also widely used for evaluating TLR7 agonist (Tsuneyasu Kaisho and Takashi Tanaka, Trends in Immunology, Volume 29, Issue 7, July 2008, […]; Hiroaki Hemmi et al, Nature Immunology 3, 196-200 (2002)).
The Compounds and Examples of the present invention were tested in HEK293-hTLR-7 assay for their TLR7 agonism activity as described herein and results are listed in Table 1. […] The calculated ratio of EC50(prodrug)/EC50(active form) were within the range from 27.7 to about 8233.

[1] = prodrug, read-out: HEK293-hTLR-7 EC50 (Prodrug)
[2] = corresponding active form, read-out: HEK293-hTLR-7 EC50 (Active form)

pEC50 [1] | Ratio (EC50(prodrug)/EC50(active form)) | pEC50 [2] | Structure (SMILES)
5.25 | 86.2 | – | CCN(CC)C(=O)n1c(=O)n(Cc2ccc(C)cc2)c2nc(S(=O)(=O)CC)nc(N)c21 [Example 15, 6-Amino-N,N-diethyl-2-ethylsulfonyl-8-oxo-9-(p-tolylmethyl)purine-7-carboxamide]
– | – | 7.12 | CCCS(=O)(=O)c1nc(N)c2[nH]c(=O)n(Cc3ccccc3)c2n1 [Compound 1a, 6-amino-9-benzyl-2-propylsulfonyl-7H-purin-8-one]
4.36 | 445.9 | – | CCN(C)C(=O)n1c(=O)n(Cc2ccc(C)cc2)c2nc(S(=O)(=O)CC)nc(N)c21 [Example 16, 6-Amino-N-ethyl-2-ethylsulfonyl-N-methyl-8-oxo-9-(p-tolylmethyl)purine-7-carboxamide]
4.53 | 174.7 | – | CCS(=O)(=O)c1nc(N)c2c(n1)n(Cc1ccccc1)c(=O)n2C(=O)N1CCCC1 [Example 5, 6-Amino-9-benzyl-2-ethylsulfonyl-7-(pyrrolidine-1-carbonyl)purin-8-one]
< 4.00 | >4348 | – | CCN(C)C(=O)n1c(=O)n(Cc2ccc(Br)cc2)c2nc(S(=O)(=O)CC)nc(N)c21 [Example 23, 6-Amino-9-[(4-bromophenyl)methyl]-N-ethyl-2-ethylsulfonyl-N-methyl-8-oxo-purine-7-carboxamide]
4.74 | 219.3 | – | CCN(C)C(=O)n1c(=O)n(Cc2ccc(Cl)cc2)c2nc(S(=O)(=O)CC)nc(N)c21 [Example 9, 6-Amino-9-[(4-chlorophenyl)methyl]-N-ethyl-2-ethylsulfonyl-N-methyl-8-oxo-purine-7-carboxamide]
5.64 | 27.7 | – | CCS(=O)(=O)c1nc(N)c2c(n1)n(Cc1ccc(Cl)cc1)c(=O)n2C(=O)N(C)C [Example 10, 6-Amino-9-[(4-chlorophenyl)methyl]-2-ethylsulfonyl-N,N-dimethyl-8-oxo-purine-7-carboxamide]
4.06 | 514.7 | – | CCCN(C)C(=O)n1c(=O)n(Cc2ccccc2)c2nc(S(=O)(=O)CC)nc(N)c21 [Example 4, 6-Amino-9-benzyl-2-ethylsulfonyl-N-methyl-8-oxo-N-propyl-purine-7-carboxamide]
4.62 | 3025 | – | CCCS(=O)(=O)c1nc(N)c2c(n1)n(Cc1ccc(OC)cc1)c(=O)n2C(=O)N(C)CC [Example 21, 6-Amino-N-ethyl-9-[-(4-methoxyphenyl)methyl]-N-methyl-8-oxo-2-propylsulfonyl-purine-7-carboxamide]
– | – | 7.19 | CCS(=O)(=O)c1nc(N)c2[nH]c(=O)n(Cc3ccc(C)cc3)c2n1 [Compound 14a, 6-amino-2-ethylsulfonyl-9-(p-tolylmethyl)-7H-purin-8-one]
4.16 | 1053 | – | CCCN(C)C(=O)n1c(=O)n(Cc2ccc(C)cc2)c2nc(S(=O)(=O)CC)nc(N)c21 [Example 14, 6-Amino-2-ethylsulfonyl-N-methyl-8-oxo-N-propyl-9-(p-tolylmethyl)purine-7-carboxamide]
– | – | 8.10 | CCS(=O)(=O)c1nc(N)c2[nH]c(=O)n(Cc3ccc(F)cc3)c2n1 [Compound 20a, 6-Amino-2-ethylsulfonyl-9-[(4-fluorophenyl)methyl]-7H-purin-8-one]
4.88 | 570 | – | CCCN(C)C(=O)n1c(=O)n(Cc2ccc(Br)cc2)c2nc(S(=O)(=O)CC)nc(N)c21 [Example 22, 6-Amino-9-[(4-bromophenyl)methyl]-2-ethylsulfonyl-N-methyl-N-propyl-8-oxo-purine-7-carboxamide]
5.48 | 50.8 | – | CCCN(C)C(=O)n1c(=O)n(Cc2ccc(C)cc2)c2nc(S(=O)(=O)CCC)nc(N)c21 [Example 12, 6-Amino-N-methyl-8-oxo-N-propyl-2-propylsulfonyl-9-(p-tolylmethyl)purine-7-carboxamide]
4.96 | 145.3 | – | CCCS(=O)(=O)c1nc(N)c2c(n1)n(Cc1ccccc1)c(=O)n2C(=O)N(C)CC [Example 1, 6-Amino-9-benzyl-N-ethyl-N-methyl-8-oxo-2-propylsulfonyl-purine-7-carboxamide]
– | – | 7.68 | CCCS(=O)(=O)c1nc(N)c2[nH]c(=O)n(Cc3ccc(Cl)cc3)c2n1 [Compound 6a, 6-amino-9-[(4-chlorophenyl)methyl]-2-propylsulfonyl-7H-purin-8-one]
– | – | 7.22 | CCS(=O)(=O)c1nc(N)c2[nH]c(=O)n(Cc3ccc(F)cc3)c2n1 [Compound 18a, 6-Amino-2-ethylsulfonyl-9-[(4-fluorophenyl)methyl]-7H-purin-8-one]
4.49 | 4012.5 | – | CCCN(C)C(=O)n1c(=O)n(Cc2ccc(OC)cc2)c2nc(S(=O)(=O)CCC)nc(N)c21 [Example 20, 6-Amino-9-[(4-methoxyphenyl)methyl]-N-methyl-8-oxo-N-propyl-2-propylsulfonyl-purine-7-carboxamide]
5.19 | 86.7 | – | CCCN(C)C(=O)n1c(=O)n(Cc2ccccc2)c2nc(S(=O)(=O)CCC)nc(N)c21 [Example 2, 6-Amino-9-benzyl-N-methyl-8-oxo-N-propyl-2-propylsulfonyl-purine-7-carboxamide]
5.02 | 147.7 | – | CCCS(=O)(=O)c1nc(N)c2c(n1)n(Cc1ccc(C)cc1)c(=O)n2C(=O)N(C)CC [Example 13, 6-Amino-N-ethyl-N-methyl-8-oxo-2-propylsulfonyl-9-(p-tolylmethyl)purine-7-carboxamide]
– | – | 6.77 | CCS(=O)(=O)c1nc(N)c2[nH]c(=O)n(Cc3ccccc3)c2n1 [Compound 3a, 6-amino-9-benzyl-2-ethylsulfonyl-7H-purin-8-one]
3.31 | 8233 | – | CCN(C)C(=O)n1c(=O)n(Cc2ccc(F)cc2)c2nc(S(=O)(=O)CC)nc(N)c21 [Example 19, 6-Amino-N-ethyl-2-ethylsulfonyl-9-[(4-fluorophenyl)methyl]-N-methyl-8-oxo-purine-7-carboxamide]
– | – | 7.64 | CCS(=O)(=O)c1nc(N)c2[nH]c(=O)n(Cc3ccc(Br)cc3)c2n1 [Compound 22a, 6-Amino-2-ethylsulfonyl-9-[(4-bromophenyl)methyl]-7H-purin-8-one]
3.98 | 614.1 | – | CCN(C)C(=O)n1c(=O)n(Cc2ccccc2)c2nc(S(=O)(=O)CC)nc(N)c21 [Example 3, 6-Amino-9-benzyl-N-ethyl-2-ethylsulfonyl-N-methyl-8-oxo-purine-7-carboxamide]
